{"source": "paper PMC5575254", "about": "“An allosteric ligand-binding site in the extracellular cap of K2P channels” (Nature Communications, 2017)", "key": {"TREK-2": {"target": "T1, TREK-2 (Homo sapiens, UniProt P57789)", "T1 construct": "expressed in transfected cells; host or cells: CHO cells, transient transfection", "T1 sequence (P57789 1-538)": "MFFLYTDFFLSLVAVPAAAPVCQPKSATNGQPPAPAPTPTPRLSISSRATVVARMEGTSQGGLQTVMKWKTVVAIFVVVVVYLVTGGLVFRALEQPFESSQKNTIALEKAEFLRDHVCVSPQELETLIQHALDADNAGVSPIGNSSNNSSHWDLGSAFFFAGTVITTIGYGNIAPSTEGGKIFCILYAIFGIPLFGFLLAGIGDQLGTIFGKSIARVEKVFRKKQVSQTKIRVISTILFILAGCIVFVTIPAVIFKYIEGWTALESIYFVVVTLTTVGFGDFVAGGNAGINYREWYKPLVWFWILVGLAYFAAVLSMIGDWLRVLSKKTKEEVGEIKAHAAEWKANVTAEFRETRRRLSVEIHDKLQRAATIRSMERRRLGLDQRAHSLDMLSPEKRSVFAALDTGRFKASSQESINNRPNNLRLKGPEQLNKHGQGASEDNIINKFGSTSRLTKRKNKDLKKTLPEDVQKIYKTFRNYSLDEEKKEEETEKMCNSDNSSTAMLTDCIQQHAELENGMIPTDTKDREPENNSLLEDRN", "test": "Whole-cell voltage clamp of CHO cells expressing TREK-2", "type": "cell-based", "conditions": "mean ± s.e.m", "description": "(§1) cDNA of the human TREK-1, TREK-2 and TRAAK channels were subcloned into the pEGFPN1 expression vector (Invitrogen), respectively. Mutations were introduced into TREK-1 or TRAAK by PCR using the QuickChange XL sitedirected mutagenesis kit (Agilent Technologies) and were subsequently confirmed by DNA sequencing.\n(§2) Chinese hamster ovary (CHO) cells were provided by the Cell Bank of Chinese Academy of Sciences (Shanghai, China). CHO cells were maintained in DMEM/F12 (Gibco) supplemented with 10% fetal bovine serum (Gibco) and 100 μg ml^−1 penicillin-streptomycin (Cellgro) in a humidified incubator at 37 °C (5% CO2). For electrophysiology experiments, cells plated in 35 mm tissue culture dishes (Corning Incorporated) were transiently transfected with the plasmids using PolyJet™ reagent (SignaGen) according to the manufacturer’s instructions. Primers used in this study are listed in Supplementary Table 4.\n(§3) All electrophysiological recordings were obtained using patch-clamp recordings in two different configurations: (1) whole cell for macroscopic current dose–response curves; and (2) outside-out and inside-out for macroscopic currents recordings.\n(§4) All patch-clamp recordings were conducted 36–96 h after transfection with an Axopatch-200B amplifier (Molecular Devices) at room temperature (23–25 °C). The microelectrodes fashioned from 1.5 mm thin-walled borosilicate glass with filament were pulled from Flaming/Brown type micropipette puller (P-97; SUTTER INSTRUMENT) with the resistances of 3–7 MΩ (whole cell) or 7–15 MΩ (outside-out) when filled with a solution containing (in mM): 140 KCl, 2 MgCl2, 10 EGTA, 1 CaCl2, 10 HEPES (pH 7.3, adjusted with KOH). External solution contained (in mM): 150 NaCl, 5 KCl, 0.5 CaCl2, 1.2 MgCl2, 10 HEPES (pH 7.3, adjusted with NaOH). The current signals were filtered at 1 kHz and digitized at a 10 kHz sampling frequency by using DigiData 1440 A.\n(§5) Data of whole-cell voltage clamp experiments were fitted using doseResp function. The half inhibition concentrations were derived from fits of the dose–response curves to the function:1 I/I0=A1+A2-A1/1+10^logx0-xP, where I 0 and I are current amplitudes before and after application of inhibitors; A 1 and A 2 are constants between 0 and 1; x is the concentration of inhibitor; x o is the concentration when 50% inhibition was reached (IC50), P is the Hill constant."}, "TRAAK": {"target": "T2, TRAAK (Homo sapiens, UniProt Q9NYG8)", "T2 construct": "expressed in transfected cells; host or cells: CHO cells, transient transfection", "T2 sequence (Q9NYG8 1-393)": "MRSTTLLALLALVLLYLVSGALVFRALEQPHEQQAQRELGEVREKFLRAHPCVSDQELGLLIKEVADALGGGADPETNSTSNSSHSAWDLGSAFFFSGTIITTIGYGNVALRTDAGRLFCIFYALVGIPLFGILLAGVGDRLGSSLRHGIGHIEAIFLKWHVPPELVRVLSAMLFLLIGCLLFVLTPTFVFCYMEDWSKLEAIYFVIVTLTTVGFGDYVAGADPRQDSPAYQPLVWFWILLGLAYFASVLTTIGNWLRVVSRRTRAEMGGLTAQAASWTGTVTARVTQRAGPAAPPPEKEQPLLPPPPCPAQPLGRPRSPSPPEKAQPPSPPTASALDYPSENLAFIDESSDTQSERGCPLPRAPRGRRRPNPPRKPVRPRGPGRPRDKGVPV", "test": "Whole-cell voltage clamp of CHO cells expressing TRAAK", "type": "cell-based", "conditions": "whole-cell", "description": "as §1, §2, §3, §4, §5"}, "mutant TRAAK channels [1]": {"test_system": "mutant TRAAK channels", "test": "Whole-cell voltage clamp of mutant TRAAK channels", "type": "cell-based, human", "conditions": "A35Q, E38T and V42Q mutants", "description": "as §1, §2, §3\n(§6) All patch-clamp recordings were conducted 36–96 h after transfection with an Axopatch-200B amplifier (Molecular Devices) at room temperature (23–25 °C). […]"}, "mutant TRAAK channels [2]": {"test_system": "T3, mutant TRAAK channels", "T3 construct": "expressed in transfected cells; host or cells: CHO cells, transient transfection", "test": "Whole-cell voltage clamp of mutant TRAAK channels", "type": "cell-based, human", "conditions": "100 μM, L39W mutant", "description": "as §1, §2, §3, §6"}, "mice": {"test_system": "mice", "test": "Tail suspension test", "type": "in vivo, Male C57BL/6 mice", "conditions": "chronic i.p. administration 10 days; 0.5, 1, 5 mg kg-1", "procedure": "Male C57BL/6 mice, aged 8 weeks (weighing 18–20 g) were used for acute and chronic drug administration and behavioral tests. The mice were housed four per cage under a 12-h light–dark cycle. Mice were raised under stable conditions with food and water ad libitum. All animal studies and experimental procedures were approved by the Animal Care Committees of the Shanghai Institute of Materia Medica, Chinese Academy of Sciences, and experiments were carried out in accordance with EU Directive 2010/63/EU on the protection of animals used for scientific purposes. […] The mice were removed to a sound-attenuating testing room 3–4 h before testing. The behavioral tests were carried out 30 min and 24 h after acute and chronic drugs administration, respectively.\nMice were secured on the shelf by using adhesive tape placed approximately 1 cm from the tip of the tail. The mice were then suspended by placing the other end of the tape on the edge of shelf at the height of 80 cm above the floor. Six-minute session was performed for each animal. A blinded experiment was conducted to record the amount of time spent immobile during the last 4 min of the testing period; the first 2 min were excluded. Because most mice are very active at the beginning of the test, and the potential effects of the treatment can be minimized during the first 2 min. […]"}, "[3]": {"test": "Solubility of TKDC (remark)", "type": "physicochemical"}}, "data": [{"smiles": "CS(=O)(=O)N(CC(=O)N1CCc2ccccc2C1)c1ccc(Cl)cc1", "note": "[TKDC, N-(4-cholorphenyl)-N-(2-(3,4-dihydrosioquinolin-2(1H)-yl)-2-oxoethyl)methanesulfonamide]", "values": [{"measurement": "IC50", "setting": "TREK-2", "value": "5.2 ± 1.9", "unit": "µM"}, {"measurement": "decrease in the current", "setting": "TRAAK; TRAAK, 300 μM TKDC perfused", "value": "~ 75%"}, {"measurement": "IC50", "setting": "TRAAK; CHO cells, WT TRAAK, mean ± s.e.m", "value": "65.9 ± 7", "unit": "µM"}, {"measurement": "TKDC-induced inhibition of mutant TRAAK versus WT", "setting": "mutant TRAAK channels [1]", "value": "enhanced inhibition"}, {"measurement": "inhibitory effect on L39W TRAAK mutant versus wild type", "setting": "mutant TRAAK channels [2]", "value": "weaker than the TKDC-induced"}, {"measurement": "immobility in the tail suspension test", "setting": "mice", "value": "dose-dependent decrease in immobility"}, {"measurement": "solubility", "setting": "[3]", "value": "not very soluble"}]}]}
